Data published in paper PMC2851739 (General and comparative endocrinology, 2009).
Ends that are not written are not given here.

System: AeaETHRs
Experiment: flash luminescence
Type: cell-based, Aedes aegypti
Details: peptides with related sequences

| Substance | activity when tested at 10 μM |
| --- | --- |
| corazonin (QTFQYSRGWTN; ends and bridges not checked; UniProt Q26377 20-30, looked up) | inactive |
| FMRFamide | inactive |
| ghrelin (GSSFLSPEHQRVQQRKESKKPPAKLQPR; ends and bridges not checked; UniProt Q9UBU3 24-51, looked up) | inactive |
